Laboratory results from patent US20260207623A1, “USE OF ESTETROL IN HEPATICALLY IMPAIRED PATIENTS” (ESTETRA SRL, priority 2022, published 2026).

Legend:
[1] = system: post-menopausal women; assay: Example 3 (15 mg, 20 mg E4 monohydrate or placebo): weekly frequency of moderate to severe VMS and responder proportions; type: in vivo, human
Procedure: A further clinical study was designed to evaluate the effect of 15 or 20 mg estetrol (E4) monohydrate, or placebo on the severity and frequency of vasomotor symptoms (VMS) and the safety of E4 20 mg. The inclusion and exclusion criteria as described for Example 2 were maintained for the present Example (i.e. Example 3).
• 1. Mean change in weekly frequency of moderate to severe vasomotor symptoms (VMS) from Baseline to Week 4 (Efficacy Study Part) [Time Frame: Baseline and Week 4]: • The weekly frequency of moderate to severe VMS at Baseline and Week 4 is defined as the total number (sum) of all recorded moderate to severe VMS experienced during the last 7 consecutive days prior randomization for Baseline and at Week 4. Mean change=mean weekly frequency at Week 4-mean weekly frequency at Baseline. • 2. Mean change in weekly frequency of moderate to severe vasomotor symptoms (VMS) from Baseline to Week 12 (Efficacy Study Part) [Time Frame: Baseline and Week 12] • The weekly frequency of moderate to severe VMS at Baseline and Week 12 is defined as the total number (sum) of all recorded moderate to severe VMS experienced during the last 7 consecutive days prior randomization for Baseline and at Week 12. Mean change=mean weekly frequency at Week 12-mean weekly frequency at Baseline. • 3. […]

[2] = system: post-menopausal women; assay: Example 2: adverse events (AEs, TEAEs) per treatment group; type: in vivo, human
Excerpt: This is confirmed by the following statistical analysis. Using a Poisson regression model with a random effect for the patient and treatment group as a covariate to model the count of TEAEs in the different treatment groups, it can be shown that there is no statistical difference between the treatment groups (p value of 0.099). Second, a chi-square test was used to assess if the prevalence of patients reporting TEAEs in each treatment group was similar. No statistical difference was found between the treatment groups (p value of 0.575).

C[C@]12CC[C@@H]3c4ccc(O)cc4CC[C@H]3[C@@H]1[C@@H](O)[C@@H](O)[C@@H]2O [E4, 1,3,5 (10)-estratrien-3,15alpha, 16alpha, 17beta-tetrol]
frequency of moderate to severe VMS ([1]; 15 mg and 20 mg vs placebo, weeks 4 and 12 (FIG. 10)): significantly decreased | number of women with reduced VMS frequency (at least 50% or 75% reduction) vs placebo ([1]; FIG. 11): higher number of women that experienced a reduced VMS frequency than placebo

C[C@]12CC[C@@H]3c4ccc(O)cc4CC[C@H]3[C@@H]1[C@@H](O)[C@@H](O)[C@@H]2O [E4 monohydrate, estetrol monohydrate]
Count of Treatment Emergent AEs (TEAEs) ([2]; 2.5 mg daily): 61 | Percentage of patients with TEAE leading to Study Discontinuation ([2]; 2.5 mg daily): 1.9 | Percentage of patients with severe TEAE ([2]; 2.5 mg daily): 7.7 | Count of Treatment Emergent AEs (TEAEs) ([2]; 5 mg daily): 63 | Percentage of patients with TEAE leading to Study Discontinuation ([2]; 5 mg daily): 6.4 | Percentage of patients with severe TEAE ([2]; 5 mg daily): 10.6 | Count of Treatment Emergent AEs (TEAEs) ([2]; 10 mg daily): 95 | Percentage of patients with TEAE leading to Study Discontinuation ([2]; 10 mg daily): 5.6 | Percentage of patients with severe TEAE ([2]; 10 mg daily): 7.4 | average AEs per patient among patients who had AEs ([2]; 10 mg group): 3.2 AEs per patient | Count of Treatment Emergent AEs (TEAEs) ([2]; 15 mg daily): 82 | Percentage of patients with TEAE leading to Study Discontinuation ([2]; 15 mg daily): 4.1 | Percentage of patients with severe TEAE ([2]; 15 mg daily): 6.1 | average AEs per patient among patients who had AEs ([2]; 15 mg group): 2.6 AEs
